Results from ChEMBL document CHEMBL3046287, “Azoxystrobin resistance of French Mycosphaerella graminicola strains assessed by four in vitro bioassays and by screening of G143A substitution” (Crop Prot, 2010).
In brackets after ≈: the same amount, converted by molar mass.

How the values were obtained:
Format in all cases: functional, organism-based
Zymoseptoria tritici [1] = test: Antifungal activity against azoxystrobin-sensitive Zymoseptoria tritici T0473 carrying cytochrome-b G143 allele assessed as fungal growth inhibition after 6 days at 20 degC by microplate without alamar blue assay; details: T0473, 144 h
Zymoseptoria tritici [2] = test: Antifungal activity against azoxystrobin-sensitive Zymoseptoria tritici T0209 carrying cytochrome-b G143 allele assessed as fungal growth inhibition after 6 days at 20 degC by microplate without alamar blue assay; details: T0209, 144 h
Zymoseptoria tritici [3] = test: Antifungal activity against azoxystrobin-sensitive Zymoseptoria tritici T0214 carrying cytochrome-b G143 allele assessed as fungal growth inhibition after 6 days at 20 degC by microplate without alamar blue assay; details: T0214, 144 h
Zymoseptoria tritici [4] = test: Antifungal activity against azoxystrobin-sensitive Zymoseptoria tritici T0384 carrying cytochrome-b G143 allele assessed as inhibition of spore germination after 2 days at 18 degC by spotting on PDA medium assay; details: T0384, 48 h
Zymoseptoria tritici [5] = test: Antifungal activity against azoxystrobin-resistant Zymoseptoria tritici T0262 carrying cytochrome-b A143 allele assessed as inhibition of spore germination after 2 days at 18 degC by spotting on PDA medium assay; details: T0262, 48 h
Zymoseptoria tritici [6] = test: Antifungal activity against azoxystrobin-resistant Zymoseptoria tritici T0242 carrying cytochrome-b A143 allele assessed as inhibition of spore germination after 2 days at 18 degC by spotting on PDA medium assay; details: T0242, 48 h
Zymoseptoria tritici [7] = test: Antifungal activity against azoxystrobin-resistant Zymoseptoria tritici T055 carrying cytochrome-b A143 allele assessed as inhibition of spore germination after 2 days at 18 degC by spotting on PDA medium assay; details: T055, 48 h
Zymoseptoria tritici [8] = test: Antifungal activity against azoxystrobin-resistant Zymoseptoria tritici T0262 carrying cytochrome-b A143 allele assessed as fungal colony perpendicular diameter changes after 10 days at 18 degC by spotting on PDA medium assay; details: T0262, 240 h
Zymoseptoria tritici [9] = test: Antifungal activity against azoxystrobin-resistant Zymoseptoria tritici T0254 carrying cytochrome-b A143 allele assessed as fungal colony perpendicular diameter changes after 10 days at 18 degC by spotting on PDA medium assay; details: T0254, 240 h
Zymoseptoria tritici [10] = test: Antifungal activity against azoxystrobin-resistant Zymoseptoria tritici T0242 carrying cytochrome-b A143 allele assessed as fungal colony perpendicular diameter changes after 10 days at 18 degC by spotting on PDA medium assay; details: T0242, 240 h
Zymoseptoria tritici [11] = test: Antifungal activity against azoxystrobin-resistant Zymoseptoria tritici T0293 carrying cytochrome-b A143 allele assessed as fungal colony perpendicular diameter changes after 10 days at 18 degC by spotting on PDA medium assay; details: T0293, 240 h
Zymoseptoria tritici [12] = test: Antifungal activity against azoxystrobin-resistant Zymoseptoria tritici T055 carrying cytochrome-b A143 allele assessed as fungal colony perpendicular diameter changes after 10 days at 18 degC by spotting on PDA medium assay; details: T055, 240 h
Zymoseptoria tritici [13] = test: Antifungal activity against azoxystrobin-resistant Zymoseptoria tritici T0414 carrying cytochrome-b A143 allele assessed as fungal colony perpendicular diameter changes after 10 days at 18 degC by spotting on PDA medium assay; details: T0414, 240 h
Zymoseptoria tritici [14] = test: Antifungal activity against azoxystrobin-sensitive Zymoseptoria tritici IPO323 carrying cytochrome-b G143 allele assessed as inhibition of spore germination after 2 days at 18 degC by spotting on PDA medium assay; details: IPO323, 48 h
Zymoseptoria tritici [15] = test: Antifungal activity against azoxystrobin-sensitive Zymoseptoria tritici T0209 carrying cytochrome-b G143 allele assessed as inhibition of spore germination after 2 days at 18 degC by spotting on PDA medium assay; details: T0209, 48 h
Zymoseptoria tritici [16] = test: Antifungal activity against azoxystrobin-sensitive Zymoseptoria tritici T0213 carrying cytochrome-b G143 allele assessed as fungal growth inhibition after 6 days at 20 degC by microplate without alamar blue assay; details: T0213, 144 h
Zymoseptoria tritici [17] = test: Antifungal activity against azoxystrobin-sensitive Zymoseptoria tritici T0278 carrying cytochrome-b G143 allele assessed as fungal growth inhibition after 6 days at 20 degC by microplate without alamar blue assay; details: T0278, 144 h
Zymoseptoria tritici [18] = test: Antifungal activity against azoxystrobin-sensitive Zymoseptoria tritici T0471 carrying cytochrome-b G143 allele assessed as fungal growth inhibition after 6 days at 20 degC by microplate without alamar blue assay; details: T0471, 144 h
Zymoseptoria tritici [19] = test: Antifungal activity against azoxystrobin-sensitive Zymoseptoria tritici T0365 carrying cytochrome-b G143 allele assessed as fungal growth inhibition after 6 days at 20 degC by microplate without alamar blue assay; details: T0365, 144 h
Zymoseptoria tritici [20] = test: Antifungal activity against azoxystrobin-sensitive Zymoseptoria tritici T0213 carrying cytochrome-b G143 allele assessed as fungal colony perpendicular diameter changes after 10 days at 18 degC by spotting on PDA medium assay; details: T0213, 240 h
Zymoseptoria tritici [21] = test: Antifungal activity against azoxystrobin-sensitive Zymoseptoria tritici T0148 carrying cytochrome-b G143 allele assessed as fungal growth inhibition after 6 days at 20 degC by microplate without alamar blue assay; details: T0148, 144 h
Zymoseptoria tritici [22] = test: Antifungal activity against azoxystrobin-resistant Zymoseptoria tritici T0451 carrying cytochrome-b A143 allele assessed as fungal growth inhibition after 6 days at 20 degC by microplate without alamar blue assay; details: T0451, 144 h
Zymoseptoria tritici [23] = test: Antifungal activity against azoxystrobin-resistant Zymoseptoria tritici T0290 carrying cytochrome-b A143 allele assessed as fungal growth inhibition after 6 days at 20 degC by microplate without alamar blue assay; details: T0290, 144 h
Zymoseptoria tritici [24] = test: Antifungal activity against azoxystrobin-resistant Zymoseptoria tritici T0414 carrying cytochrome-b A143 allele assessed as fungal growth inhibition after 6 days at 20 degC by microplate without alamar blue assay; details: T0414, 144 h
Zymoseptoria tritici [25] = test: Antifungal activity against azoxystrobin-sensitive Zymoseptoria tritici T0470 carrying cytochrome-b G143 allele assessed as fungal colony perpendicular diameter changes after 10 days at 18 degC by spotting on PDA medium assay; details: T0470, 240 h
Zymoseptoria tritici [26] = test: Antifungal activity against azoxystrobin-sensitive Zymoseptoria tritici IPO323 carrying cytochrome-b G143 allele assessed as fungal colony perpendicular diameter changes after 10 days at 18 degC by spotting on PDA medium assay; details: IPO323, 240 h
Zymoseptoria tritici [27] = test: Antifungal activity against azoxystrobin-sensitive Zymoseptoria tritici T0214 carrying cytochrome-b G143 allele assessed as fungal colony perpendicular diameter changes after 10 days at 18 degC by spotting on PDA medium assay; details: T0214, 240 h
Zymoseptoria tritici [28] = test: Antifungal activity against azoxystrobin-sensitive Zymoseptoria tritici T0210 carrying cytochrome-b G143 allele assessed as fungal colony perpendicular diameter changes after 10 days at 18 degC by spotting on PDA medium assay; details: T0210, 240 h
Zymoseptoria tritici [29] = test: Antifungal activity against azoxystrobin-sensitive Zymoseptoria tritici T0403 carrying cytochrome-b G143 allele assessed as fungal growth inhibition after 6 days at 20 degC by microplate without alamar blue assay; details: T0403, 144 h
Zymoseptoria tritici [30] = test: Antifungal activity against azoxystrobin-sensitive Zymoseptoria tritici T0473 carrying cytochrome-b G143 allele assessed as fungal colony perpendicular diameter changes after 10 days at 18 degC by spotting on PDA medium assay; details: T0473, 240 h

## CO/C=C(/C(=O)OC)c1ccccc1Oc1cc(Oc2ccccc2C#N)ncn1 [AZOXYSTROBIN]
Zymoseptoria tritici [1]
  IC50: 0.01 µg/mL (≈ 0.0248 µM)
Zymoseptoria tritici [2]
  IC50: 0.01 µg/mL (≈ 0.0248 µM)
Zymoseptoria tritici [3]
  IC50: 0.02 µg/mL (≈ 0.0496 µM)
Zymoseptoria tritici [4]
  IC50: 0.76 µg/mL (≈ 1.88 µM)
Zymoseptoria tritici [5]
  IC50: > 100 µg/mL
Zymoseptoria tritici [6]
  IC50: 18.4 µg/mL (≈ 45.7 µM)
Zymoseptoria tritici [7]
  IC50: 15.6 µg/mL (≈ 38.6 µM)
Zymoseptoria tritici [8]
  IC50: 9.91 µg/mL (≈ 24.6 µM)
Zymoseptoria tritici [9]
  IC50: 10.8 µg/mL (≈ 26.8 µM)
Zymoseptoria tritici [10]
  IC50: 12 µg/mL (≈ 29.7 µM)
Zymoseptoria tritici [11]
  IC50: 10.2 µg/mL (≈ 25.2 µM)
Zymoseptoria tritici [12]
  IC50: 10.2 µg/mL (≈ 25.2 µM)
Zymoseptoria tritici [13]
  IC50: 11.8 µg/mL (≈ 29.3 µM)
Zymoseptoria tritici [14]
  IC50: 0.07 µg/mL (≈ 0.174 µM)
Zymoseptoria tritici [15]
  IC50: 0.09 µg/mL (≈ 0.223 µM)
Zymoseptoria tritici [16]
  IC50: 0.03 µg/mL (≈ 0.0744 µM)
Zymoseptoria tritici [17]
  IC50: 0.04 µg/mL (≈ 0.0992 µM)
Zymoseptoria tritici [18]
  IC50: 0.05 µg/mL (≈ 0.124 µM)
Zymoseptoria tritici [19]
  IC50: 0.16 µg/mL (≈ 0.397 µM)
Zymoseptoria tritici [20]
  IC50: 0.11 µg/mL (≈ 0.273 µM)
Zymoseptoria tritici [21]
  IC50: 0.21 µg/mL (≈ 0.521 µM)
Zymoseptoria tritici [22]
  IC50: > 100 µg/mL
Zymoseptoria tritici [23]
  IC50: > 100 µg/mL
Zymoseptoria tritici [24]
  IC50: > 100 µg/mL
Zymoseptoria tritici [25]
  IC50: 0.06 µg/mL (≈ 0.149 µM)
Zymoseptoria tritici [26]
  IC50: 0.03 µg/mL (≈ 0.0744 µM)
Zymoseptoria tritici [27]
  IC50: 0.09 µg/mL (≈ 0.223 µM)
Zymoseptoria tritici [28]
  IC50: 0.06 µg/mL (≈ 0.149 µM)
Zymoseptoria tritici [29]
  IC50: 9.9 µg/mL (≈ 24.5 µM)
Zymoseptoria tritici [30]
  IC50: 0.13 µg/mL (≈ 0.322 µM)
